Assay results from patent US20250195521A1 (Revolution Medicines, Inc., priority 2020, published 2025).
pIC50: −log10 of the molar value. Values joined by “and” are separate entries in the source; they are usually repeats but may differ in a detail not shown here. Equal values may be shown once.

How the values were obtained:
[1] = test system: Capan-1 cells (K-Ras G12V); assay: CellTiter-Glo cell viability, Capan-1; type: cell-based, human; conditions: Homo sapiens, CAPAN-1, 120 h, K-Ras G12V, 5-day treatment; read-out: Capan-1 Cell Viability IC50
Summary of the method: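 Endpoint: CellTiter-Glo luminescence on day 5, following ~30 min at room temperature. Data as (sample/mean DMSO)×100, four-parameter logistic fit.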

KRAS G13C = KRAS G13C (Homo sapiens (Human), UniProt P01116+P62937, G13C); assay: Ras-Raf disruption/FRET/MOA assay (BRAF RBD, Cyclophilin A); type: biochemical; conditions: read-out: KRAS G13C FRET IC50
Summary of the method: (§1)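 First, 25 μM Cyclophilin A, 12.5 nM His6-Ras-GMPPNP and 50 nM GST-BRAF RBD are mixed with diluted compound at pH 7.3. Next, 3 h at 25° C. Then 10 nM anti-His Eu-W1024 plus 50 nM anti-GST allophycocyanin for 1.5 h before TR-FRET reading.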

KRAS G13D = KRAS G13D (Homo sapiens (Human), UniProt P01116+P62937, G13D); assay: as above; type: biochemical; conditions: read-out: KRAS G13D FRET data IC50
Summary of the method: as §1

KRAS WT = KRAS WT (Homo sapiens (Human), UniProt P01116+P62937); assay: as above; type: biochemical; conditions: read-out: KRAS WT FRET data IC50
Summary of the method: as §1

KRAS G12C = KRAS G12C (Homo sapiens (Human), UniProt P01116+P62937, G12C); assay: as above; type: biochemical; conditions: read-out: KRAS G12C FRET IC50
Summary of the method: as §1

KRAS G12V = KRAS G12V (Homo sapiens (Human), UniProt P01116+P62937, G12V); assay: as above; type: biochemical; conditions: read-out: KRAS G12V FRET IC50
Summary of the method: as §1

KRAS G12D = KRAS G12D (Homo sapiens (Human), UniProt P01116+P62937, G12D); assay: as above; type: biochemical; conditions: read-out: KRAS G12D FRET IC50
Summary of the method: as §1

[2] = target: K-Ras G12C(GMP-PNP) binding to BRAF RBD (Homo sapiens (Human), UniProt P01116+P62937, G12C); assay: Disruption of BRAF RBD interaction with K-Ras (FRET / MOA assay), K-Ras G12C; type: biochemical; conditions: read-out: KRAS G12C FRET IC50
Summary of the method: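 Compounds promote ternary complex of nucleotide-loaded Ras (here K-Ras G12C·GMP-PNP; other Ras mutants substituted) with cyclophilin A, disrupting BRAF RBD binding. 10-point 3-fold series from 30 μM final, 3 h at 25 °C, then anti-His Eu (10 nM) and anti-GST APC (50 nM) for 1.5 h. TR-FRET ratio decrease versus DMSO gave IC50.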

Sequence of KRAS G12D (P01116 other isoform, or with tags, fused parts or gaps G12D): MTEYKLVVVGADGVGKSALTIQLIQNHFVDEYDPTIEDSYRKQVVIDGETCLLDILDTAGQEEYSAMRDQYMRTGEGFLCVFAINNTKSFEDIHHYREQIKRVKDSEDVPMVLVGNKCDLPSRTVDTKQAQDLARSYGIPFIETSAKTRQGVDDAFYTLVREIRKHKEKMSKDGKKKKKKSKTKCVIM
Sequence of KRAS G12D (P62937 whole entry): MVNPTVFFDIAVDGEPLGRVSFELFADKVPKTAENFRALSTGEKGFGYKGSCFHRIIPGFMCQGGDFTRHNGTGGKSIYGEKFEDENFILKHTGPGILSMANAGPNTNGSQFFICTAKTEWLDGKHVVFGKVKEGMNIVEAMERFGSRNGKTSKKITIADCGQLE
Sequence of KRAS G12C (P01116-2 other isoform, or with tags, fused parts or gaps G12C): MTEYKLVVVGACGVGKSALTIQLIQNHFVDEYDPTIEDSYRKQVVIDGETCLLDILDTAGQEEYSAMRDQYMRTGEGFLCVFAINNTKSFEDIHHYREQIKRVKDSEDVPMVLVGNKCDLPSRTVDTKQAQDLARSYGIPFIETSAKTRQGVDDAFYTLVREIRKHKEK
Sequence of KRAS G12C (P62937 whole entry): as the sequence (P62937 whole entry) above
Sequence of K-Ras G12C(GMP-PNP) binding to BRAF RBD (P01116 other isoform, or with tags, fused parts or gaps G12C): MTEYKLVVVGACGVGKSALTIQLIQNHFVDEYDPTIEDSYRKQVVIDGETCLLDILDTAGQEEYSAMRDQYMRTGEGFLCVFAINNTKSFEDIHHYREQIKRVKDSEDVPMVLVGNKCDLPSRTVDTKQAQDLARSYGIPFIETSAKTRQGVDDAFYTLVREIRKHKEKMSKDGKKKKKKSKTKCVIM
Sequence of K-Ras G12C(GMP-PNP) binding to BRAF RBD (P62937 whole entry): as the sequence (P62937 whole entry) above
Sequence of KRAS G13D (P01116 other isoform, or with tags, fused parts or gaps G13D): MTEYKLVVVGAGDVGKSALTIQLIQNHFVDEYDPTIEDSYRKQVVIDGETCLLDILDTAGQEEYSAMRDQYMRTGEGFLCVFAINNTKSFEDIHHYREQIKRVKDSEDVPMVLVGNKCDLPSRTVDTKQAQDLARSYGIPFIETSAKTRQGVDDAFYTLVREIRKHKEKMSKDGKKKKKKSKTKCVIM
Sequence of KRAS G13D (P62937 whole entry): as the sequence (P62937 whole entry) above
Sequence of KRAS G13C (P01116 other isoform, or with tags, fused parts or gaps G13C): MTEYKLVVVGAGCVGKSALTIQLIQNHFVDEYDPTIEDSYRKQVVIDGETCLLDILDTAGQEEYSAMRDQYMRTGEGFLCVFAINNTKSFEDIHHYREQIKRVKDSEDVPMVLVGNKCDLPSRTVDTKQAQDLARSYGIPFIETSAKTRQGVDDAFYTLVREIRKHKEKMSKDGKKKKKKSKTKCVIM
Sequence of KRAS G13C (P62937 whole entry): as the sequence (P62937 whole entry) above
Sequence of KRAS G12V (P01116 other isoform, or with tags, fused parts or gaps G12V): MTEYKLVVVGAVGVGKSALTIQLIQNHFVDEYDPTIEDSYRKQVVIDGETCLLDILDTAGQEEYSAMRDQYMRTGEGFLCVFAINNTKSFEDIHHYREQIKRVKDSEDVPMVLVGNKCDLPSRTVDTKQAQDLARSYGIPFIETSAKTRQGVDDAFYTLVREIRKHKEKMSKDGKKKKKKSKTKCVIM
Sequence of KRAS G12V (P62937 whole entry): as the sequence (P62937 whole entry) above
Sequence of KRAS WT (P01116 other isoform, or with tags, fused parts or gaps): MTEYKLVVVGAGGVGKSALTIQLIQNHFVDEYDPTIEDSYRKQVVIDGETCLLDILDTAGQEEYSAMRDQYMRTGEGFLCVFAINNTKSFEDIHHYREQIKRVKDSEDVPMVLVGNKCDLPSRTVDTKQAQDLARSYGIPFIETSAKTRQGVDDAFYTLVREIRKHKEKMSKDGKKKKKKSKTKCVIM
Sequence of KRAS WT (P62937 whole entry): as the sequence (P62937 whole entry) above

CCn1c(-c2cccnc2[C@H](C)OC)c2c3cc(ccc31)-c1cc(O)cc(c1)C[C@H](NC(=O)[C@H](C(C)C)N(C)C(=O)[C@H]1CCN(C(C)=O)C1)C(=O)N1CCC[C@H](N1)C(=O)OCC(C)(C)C2 [Compound A5]
pIC50 [1]: 6.00 to 7.00 | pIC50 (KRAS G13C): 6.00 to 7.00 | pIC50 (KRAS G13D): 6.00 to 7.00 | pIC50 (KRAS WT): 6.00 to 7.00 | pIC50 (KRAS G12C): 7.00 to 8.00 | pIC50 (KRAS G12V): 7.00 to 8.00 | pIC50 (KRAS G12D): 6.00 to 7.00

CCn1c(-c2cccnc2[C@H](C)OC)c2c3cc(ccc31)-c1csc(n1)C[C@H](NC(=O)[C@H](C(C)C)N(C)C(=O)[C@H]1CCN(C(=O)CN(C)C)C1)C(=O)N1CCC[C@H](N1)C(=O)OCC(C)(C)C2 [Compound A97]
pIC50 [1]: 5.00 to 6.00 | pIC50 (KRAS G13C): 5.00 to 6.00 | pIC50 (KRAS G13D): 5.00 to 6.00 | pIC50 (KRAS WT): 5.00 to 6.00 | pIC50 (KRAS G12C): 6.00 to 7.00 | pIC50 (KRAS G12V): 5.00 to 6.00 | pIC50 (KRAS G12D): 5.00 to 6.00

CCn1c(-c2cccnc2[C@H](C)OC)c2c3cc(ccc31)-c1cccc(c1)C[C@H](NC(=O)[C@H](C(C)C)N(C)C(=O)[C@H]1CCNC1)C(=O)N1CCC[C@H](N1)C(=O)OCC(C)(C)C2 [Compound A119]
pIC50 [1]: < 5.00 | pIC50 [2]: 6.00 to 7.00 | pIC50 (KRAS G13C): 6.00 to 7.00 | pIC50 (KRAS G13D): 6.00 to 7.00 | pIC50 (KRAS WT): 5.00 to 6.00 | pIC50 (KRAS G12C): 5.00 to 6.00 | pIC50 (KRAS G12V): < 5.00 | pIC50 (KRAS G12D): 5.00 to 6.00

CCn1c(-c2cccnc2[C@H](C)OC)c2c3cc(ccc31)-c1cc(O)cc(c1)C[C@H](NC(=O)C(=C(C)C)N(C)C(C)=O)C(=O)N1CCC[C@H](N1)C(=O)OCC(C)(C)C2 [Compound A142]
pIC50 [1]: < 5.00 | pIC50 [2]: 7.00 to 8.00 | pIC50 (KRAS G13C): 6.00 to 7.00 | pIC50 (KRAS G13D): 5.00 to 6.00 | pIC50 (KRAS WT): 5.00 to 6.00 | pIC50 (KRAS G12C): 5.00 to 6.00 | pIC50 (KRAS G12V): 5.00 to 6.00 | pIC50 (KRAS G12D): < 5.00

CCn1c(-c2cccnc2[C@H](C)OC)c2c3cc(ccc31)-c1cc(cc3nc[nH]c13)C[C@H](NC(=O)[C@H](C(C)C)N(C)C(C)=O)C(=O)N1CCC[C@H](N1)C(=O)OCC(C)(C)C2 [Compound A153]
pIC50 [1]: < 5.00 | pIC50 [2]: 7.00 to 8.00 | pIC50 (KRAS G13C): < 5.00 | pIC50 (KRAS G13D): < 5.00 | pIC50 (KRAS WT): < 5.00 | pIC50 (KRAS G12V): < 5.00 | pIC50 (KRAS G12D): < 5.00

CCn1c(-c2cccnc2[C@H](C)OC)c2c3cc(ccc31)-c1cc(cc(S(C)(=O)=O)c1)C[C@H](NC(=O)[C@H](C(C)C)N(C)C(C)=O)C(=O)N1CCC[C@H](N1)C(=O)OCC(C)(C)C2 [Compound A154]
pIC50 [1]: < 5.00 | pIC50 [2]: 7.00 to 8.00 | pIC50 (KRAS G13C): < 5.00 | pIC50 (KRAS G13D): < 5.00 | pIC50 (KRAS WT): < 5.00 | pIC50 (KRAS G12V): < 5.00 | pIC50 (KRAS G12D): < 5.00

CCn1c(-c2cccnc2[C@H](C)OC)c2c3cc(ccc31)-c1cc(O)cc(c1)C[C@H](NC(=O)[C@H](C(C)C)N(C)C(=O)[C@H]1CCN(C3CC3)C1)C(=O)N1CCC[C@H](N1)C(=O)OCC(C)(C)C2 [Compound A175]
pIC50 [1]: 5.00 to 6.00 | pIC50 [2]: > 8.00 | pIC50 (KRAS G13C): 6.00 to 7.00 | pIC50 (KRAS G13D): 5.00 to 6.00 | pIC50 (KRAS WT): 5.00 to 6.00 | pIC50 (KRAS G12C): 5.00 to 6.00 | pIC50 (KRAS G12V): < 5.00 | pIC50 (KRAS G12D): 5.00 to 6.00

CCn1c(-c2cccnc2[C@H](C)OC)c2c3cc(ccc31)-c1cccc(c1)C[C@H](NC(=O)[C@H](C(C)C)N(C)C(=O)C1COC1)C(=O)N1CCC[C@H](N1)C(=O)OCC(C)(C)C2 [Compound A246]
pIC50 [1]: 5.00 to 6.00 | pIC50 [2]: > 8.00 | pIC50 (KRAS G13C): 5.00 to 6.00 | pIC50 (KRAS G13D): 5.00 to 6.00 | pIC50 (KRAS WT): 5.00 to 6.00 | pIC50 (KRAS G12C): 5.00 to 6.00 | pIC50 (KRAS G12V): 5.00 to 6.00 | pIC50 (KRAS G12D): < 5.00

CCn1c(-c2cccnc2[C@H](C)OC)c2c3cc(ccc31)-c1cc(O)cc(c1)C[C@H](NC(=O)[C@H](C(C)C)N(C)C(=O)C1CC(=O)N(C3CC3)C1)C(=O)N1CCC[C@H](N1)C(=O)OCC(C)(C)C2 (some centres unmarked) [Compound A252]
pIC50 [1]: 6.00 to 7.00 | pIC50 [2]: 7.00 to 8.00 | pIC50 (KRAS G13C): 7.00 to 8.00 | pIC50 (KRAS G13D): 6.00 to 7.00 and 7.00 to 8.00 | pIC50 (KRAS WT): 7.00 to 8.00 | pIC50 (KRAS G12C): 7.00 to 8.00 | pIC50 (KRAS G12V): 6.00 to 7.00 and 7.00 to 8.00 | pIC50 (KRAS G12D): 6.00 to 7.00
